The text below walks through data of paper PMC11320734 (ACS Pharmacology & Translational Science, 2024).

Data set [1] in a line: Hepatocyte clearance assay. The format is in vitro ADME. As to the method: The hepatocyte clearance assay was performed as previously described.[39] For mice hepatocytes, the suspension cultures were either freshly prepared by liver perfusion or prepared from cryopreserved hepatocyte batches (pooled C57BL6 mouse hepatocytes were purchased from BioreclamationIVT (NY, USA)). For human hepatocytes, commercially available, pooled (5–20 donors), cryopreserved samples from nontransplantable liver tissues were used. For the suspension cultures, Nunc U96 PP-0.5 mL (Nunc Natural, 267245) plates were used, which were incubated in a Thermo Forma incubator from Fischer Scientific (Wohlen, Switzerland) equipped with shakers from Variomag Teleshake (Sterico, Wangen, Switzerland) for maintaining cell dispersion. The cell culture medium was William’s media supplemented with glutamine, antibiotics (100 IU/mL Penicillin-Streptomycin, Gibco), insulin, dexamethasone, and 10% fetal calf serum (FCS). Incubations of a test compound at 1 μM test concentration in suspension cultures of 1 × 10^6 cells mL^–1 (∼1 μg μL^–1 protein concentration) were performed in 96-well plates and shaken at 900 rpm for up to 2 h in a 5% CO2 atmosphere at 37 °C. After 3, 6, 10, 20, 40, 60, and 120 min, a 100 μL cell suspension in each well was quenched with 200 μL methanol containing an internal standard. Samples were then cooled and centrifuged before analysis by LC-MS/MS. […]

Another data set concerns the target PPARg (Homo sapiens, UniProt P37231). Briefly: Endocannabinoid target profiling: PPARg. The settings on record: Table S1; read-out: PPARg (Ki, IC50).
A further data set has as its target hERG channel (Homo sapiens, UniProt Q12809). Briefly: hERG inhibition. The format is cell-based. Background: Block of hERG is tested as a sign of cardiac risk.
The nature of another data set: GSH adduct formation. The format is in vitro ADME, rat. As to the method:
Cytochrome P450 (CYP) assays were conducted as previously described.[41] In brief, RNB-61 was incubated at a range of concentrations with the following components: pooled human liver microsomes, CYP probe substrate around the reported Km, and NADPH with a final concentration: 1 mM in 100 mM sodium phosphate buffer (pH 7.4). The conditions were optimized for a linear metabolic rate for the probe substrate reactions. The analysis of the samples was carried out by LC-MS/MS. The assays generated two endpoints: IC50 (μM) and percent inhibition at the highest acceptable test concentration (typically 50 μM; lower if the highest concentration data are rejected due to insolubility). […] (GSH) adduct formation data was assessed as reported in a previous study.[42] Briefly, RNB-61 was incubated with human liver microsomes to form reactive metabolites, and glutathione was added as a nucleophile to convert the reactive metabolites into stable conjugates that could be analyzed by MS.

Data set [2] can be described thus: Thermodynamic solubility assay (THESA), also in FaSSIF and FeSSIF. It is filed as physicochemical. The settings on record: thermodynamic from solid. As to the method:
For the determination of the octanol/water distribution coefficient (logD), the carrier-mediated distribution system (CAMDIS)-assay was used as described elsewhere.[38] Kinetic and thermodynamic solubilities were assessed using the lyophilization solubility assay (LYSA) and thermodynamic solubility assay (THESA), respectively. For the LYSA, the solubility of RNB- 61 in phosphate buffer at pH 6.5 from an evaporated 10 mM DMSO compound stock solution was measured. Two aliquots of the test compounds were dried and dissolved in phosphate buffer at pH 6.5. The solutions were then filtered and diluted (3 different dilution levels for each compound) before high throughput mass spectrometry (MS) analysis was performed in an Agilent RapidFire system. Each test compound was quantified using a 6-point calibration curve prepared with the same DMSO starting solution. For THESA, RNB-61 (8.6 mg per mL solvent/vehicle) was stirred in HPLC vials (9 × 12 × 32 mm, Waters) at 350 rpm for 15 h. The presence of solid particles was determined by microscopic analysis of 10 μL samples. If the active pharmacological ingredient (API) was completely dissolved, more solid API was added before stirring for another 15 h. This step was repeated for up to 96 h or until residual solid particles could be detected. Samples (0.5 mL) were transferred to Eppendorf Ultrafree filter tubes (Filter: PVDF 0.22 μm) and centrifuged at 14,500 rpm for 10 min. The filtrates were diluted in ethanol and analyzed by ultra-performance liquid chromatography (UPLC). Measurements were repeated in 0.05 M aqueous phosphate buffer and in fasted (FaSSIF) and fed (FeSSIF) simulated gastrointestinal fluids.

Data set [3] can be described thus: Aqueous stability assay (ASTA). It is filed as physicochemical. The procedure: The stability of the compound was assessed using the aqueous stability assay (ASTA), as previously described.[37] In short, aqueous solutions of RNB-61 were prepared at 5 different pH values (range 1–10), added to incubation plates and shaken for 10 min at 37 °C. Solutions were transferred to a filter plate (Millipore MSGVN2250, pore size 0.22 μm) and filtered into V- bottom plates (ABGene, AB-0800) prior to heat-sealing. The procedure was repeated, increasing the 37 °C incubation time by 2 h. Samples were analyzed by HPLC at 0 and 2 h. A compound was classified as unstable if <90% of the initial concentration was detected after 2 h.

Another data set concerns the target human wild type CB2R (Homo sapiens, UniProt P34972). Nature of the data set: cAMP assay in CHO cells. On the set-up: expressed in transfected cells; host or cells: CHO cells. It is filed as cell-based.
The target in the next data set is human CB2R (Homo sapiens, UniProt P34972). Briefly: Competition binding assay with [3H]-CP55940, HEK cell membranes.
human CB2R, sequence (P34972 whole entry): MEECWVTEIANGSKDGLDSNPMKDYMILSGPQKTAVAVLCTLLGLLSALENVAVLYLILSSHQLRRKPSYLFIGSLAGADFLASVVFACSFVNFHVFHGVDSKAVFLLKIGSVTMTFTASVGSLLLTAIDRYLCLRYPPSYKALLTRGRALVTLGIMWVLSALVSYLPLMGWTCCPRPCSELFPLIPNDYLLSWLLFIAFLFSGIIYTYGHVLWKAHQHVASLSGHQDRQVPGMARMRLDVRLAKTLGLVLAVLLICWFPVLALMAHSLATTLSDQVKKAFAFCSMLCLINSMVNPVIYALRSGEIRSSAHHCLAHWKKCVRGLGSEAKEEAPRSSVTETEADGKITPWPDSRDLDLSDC

≈ marks a conversion by molar mass, not a printed value. Like-named read-outs stand apart in the source and are kept apart here.

human wild type CB2R, sequence (P34972 whole entry): as above
hERG channel, sequence (Q12809 whole entry): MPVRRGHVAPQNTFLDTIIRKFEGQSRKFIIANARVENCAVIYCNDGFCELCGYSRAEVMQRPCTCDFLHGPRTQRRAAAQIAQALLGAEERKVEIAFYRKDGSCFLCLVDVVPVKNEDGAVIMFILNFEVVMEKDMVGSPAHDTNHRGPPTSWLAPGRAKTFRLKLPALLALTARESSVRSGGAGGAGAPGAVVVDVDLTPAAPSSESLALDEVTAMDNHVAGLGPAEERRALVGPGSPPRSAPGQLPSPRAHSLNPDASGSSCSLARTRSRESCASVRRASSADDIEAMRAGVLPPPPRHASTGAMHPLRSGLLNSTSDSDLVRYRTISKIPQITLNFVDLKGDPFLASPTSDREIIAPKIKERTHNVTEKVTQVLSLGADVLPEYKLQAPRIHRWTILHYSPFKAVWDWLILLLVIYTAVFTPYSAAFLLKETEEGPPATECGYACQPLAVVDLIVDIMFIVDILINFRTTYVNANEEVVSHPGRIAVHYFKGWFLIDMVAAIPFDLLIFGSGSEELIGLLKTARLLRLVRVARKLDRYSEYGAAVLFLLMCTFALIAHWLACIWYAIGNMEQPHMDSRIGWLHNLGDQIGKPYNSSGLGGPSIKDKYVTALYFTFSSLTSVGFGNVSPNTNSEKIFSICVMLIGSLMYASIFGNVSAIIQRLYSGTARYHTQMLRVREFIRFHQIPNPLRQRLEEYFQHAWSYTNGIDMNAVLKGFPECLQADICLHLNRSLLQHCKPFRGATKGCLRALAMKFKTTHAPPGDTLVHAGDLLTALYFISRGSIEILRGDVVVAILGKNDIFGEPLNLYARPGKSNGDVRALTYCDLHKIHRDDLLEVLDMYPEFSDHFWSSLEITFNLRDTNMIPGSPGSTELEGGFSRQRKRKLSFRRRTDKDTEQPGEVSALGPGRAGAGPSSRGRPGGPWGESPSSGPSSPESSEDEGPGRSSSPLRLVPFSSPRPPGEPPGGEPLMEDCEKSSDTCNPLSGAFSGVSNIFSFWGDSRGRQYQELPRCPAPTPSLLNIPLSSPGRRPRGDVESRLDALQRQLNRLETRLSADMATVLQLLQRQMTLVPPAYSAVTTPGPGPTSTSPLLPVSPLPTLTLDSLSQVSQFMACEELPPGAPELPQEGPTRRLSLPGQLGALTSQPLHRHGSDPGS
PPARg, sequence (P37231 whole entry, species assumed): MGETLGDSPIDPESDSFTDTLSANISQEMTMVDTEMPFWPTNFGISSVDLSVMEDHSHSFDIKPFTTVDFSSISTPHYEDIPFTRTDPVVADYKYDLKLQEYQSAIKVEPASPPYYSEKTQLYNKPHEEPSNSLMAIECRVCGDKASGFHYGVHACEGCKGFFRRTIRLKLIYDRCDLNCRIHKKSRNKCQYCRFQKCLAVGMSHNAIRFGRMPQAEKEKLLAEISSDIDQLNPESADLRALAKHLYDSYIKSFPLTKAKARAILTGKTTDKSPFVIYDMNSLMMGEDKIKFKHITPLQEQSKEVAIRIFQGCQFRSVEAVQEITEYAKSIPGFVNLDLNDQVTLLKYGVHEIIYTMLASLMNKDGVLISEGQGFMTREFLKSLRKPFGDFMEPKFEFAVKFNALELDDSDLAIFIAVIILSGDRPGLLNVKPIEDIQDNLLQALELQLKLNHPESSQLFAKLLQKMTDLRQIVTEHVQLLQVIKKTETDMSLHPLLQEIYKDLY
Description for human CB2R: Competition and saturation binding assays were performed using the radiolabeled CB1R/CB2R agonist [^3H]-CP55940 (PerkinElmer).
Binding reactions were terminated by vacuum filtration onto 0.5% polyethylenimine presoaked GF/B filter plates (Packard) using a Filtermate cell harvester followed by 6 brief washes with 0.3 mL/well of ice-cold wash buffer. Wash buffer comprising 50 mmol L^–1 Tris- HCl, 5 mmol L^–1 MgCl2, 2.5 mmol L^–1 EDTA, and 0.5% fatty acid-free BSA, pH 7.4. Plates were dried at 50 °C for 1 h and liquid scintillation counting was used to determine levels of bound radiolabel. IC50 values and Hill slopes were determined with a 4-parameter logistic model using ActivityBase (ID Business Solution, Guilford, UK) and pKi values were determined using the Cheng–Prusoff equation as shown below: [drawing 1] where S indicates the concentration of the substrate and Km depicts the affinity constant of the substrate.

A word on the hepatocyte CLint: it is the capacity of the preparation to metabolise the compound, expressed as a volume cleared per time. Usually IC50 stands for the concentration that gives 50% inhibition. The solubility is how much of the substance goes into solution per volume. For orientation: Emax means the maximal effect, on the per cent scale that the assay sets. In general, EC50 refers to the concentration giving half of the maximal effect. By Ki is commonly meant the dissociation constant of the complex between target and ligand, obtained from inhibition or displacement. Higher therefore signals a looser hold on the target. On to `Cn1c(C(C)(C)C)cc(=NC(=O)c2cc(C(F)(F)F)ccc2OCC(C)(C)O)n1CC1CCC1` [RNB-61], for which the hepatocyte CLint at 1 μM in data set [1] (C57BL6, mouse) came to 48.5 µL/min/1e6 cells. Also, in data set [1] (human, pooled cryopreserved human hepatocytes in suspension culture), the hepatocyte CLint at 1 μM came to 85 µL/min/1e6 cells. The IC50 on PPARg is > 10000 nM. Moreover, the hERG inhibition on hERG channel was >10 µM. The “GSH adducts (rat liver microsomes)” value in “GSH adduct formation” was “did not form any adducts”. In addition, the solubility at 15 h in data set [2] (aqueous buffer, read-out: aqueous solubility THESA) is 0.316 mg/mL (≈ 656 µM). The solubility at 15 h in data set [2] (fassif, fasted simulated gastrointestinal fluid, read-out: solubility FaSSIF) is 0.63 mg/mL (≈ 1310 µM). In data set [2] (fessif, fed simulated gastrointestinal fluid, read-out: solubility FeSSIF), the solubility at 15 h is 1.37 mg/mL (≈ 2850 µM). Also, in data set [3] (2 h, 37 °C), the “stability in aqueous solution at pH 1” value was 104.4 % of initial [200 nM], the “stability in aqueous solution at pH 4” value was 102.7 % of initial [200 nM], the “stability in aqueous solution at pH 6.5” value was 102.7 % of initial [200 nM] and the “stability in aqueous solution at pH 8” value was 100.5 % of initial [200 nM]. Also, the “stability in aqueous solution at pH 10” value in data set [3] (2 h, 37 °C) is 101.6 % of initial [200 nM]. Also, the “stability in aqueous solution” value in data set [3] (2 h at 37 °C at pH 1, 4, 6.5, 8 and 10) was “stable”. Further, the Emax at human wild type CB2R (CHO, percentage normalized to 1 μM CP55940, read-out: Emax cAMP inhibition) is 100%. Further, the EC50 at human wild type CB2R (Table 1, mean ± SD, read-out: EC50 hCB2R (cAMP assay)) came to 0.31 ± 0.07 nM. Also, the “Emax cAMP inhibition” value on human wild type CB2R (percentage normalized to 1 μM CP55940, listed as RBN-61) is “same efficacy (Emax) as CP55,940”. For the same compound, the Ki at human CB2R turned out to be 0.57 ± 0.03 nM. On human CB2R (Ki hCB1R over Ki hCB2R), this compound displayed a hCB2R selectivity of 6810. Further, at human CB2R (hCB2R over hCB1R), the “selectivity over hCB1R” value is reported as 6,800 fold.
